Test: Magnitude of colour change (light absorbance) dry vs damp for colour-formers dip-coated on MDI and TDI HPU foam (Example 25)
Conditions: for Enhancement: light absorbance damp versus dry
Experimental: A range of colour-formers were dip-coated onto MDI- and TDI-based HPU foams using the following method:
A solution of colour-former in acetone (5 mg/ml) was prepared. A 20×20×5 mm square sample of a TDI-based or MDI-based HPU foam was fully immersed in the colour-former solution (20 ml), taking care to avoid air-locking within the foam. The sample was immediately removed from the solution and excess solution removed with light squeezing followed by hand compression between layers of absorbent tissue.
The sample was oven dried at 70° C. for 10 minutes, resulting in an off-white sample in all cases.
The light absorbance of the resulting samples was recorded in the dry state at the wavelength of maximum light absorbance (when moistened). Each sample was individually fully wet out in deionised water and dried to dampness between absorbent tissue prior to immediate determination of light absorbance at the aforementioned wavelength.

SMILES	Enhancement (MDI HPU foam)	Enhancement (TDI HPU foam)	suitability to function as colour-forming indicator (on MDI or TDI HPU foams at the loading concentrations employed, damp absorbance versus 0.1 absorbance unit visibility limit)
CN(C)c1ccc(C2(c3ccc(N(C)C)cc3)OC(=O)c3cc(N(C)C)ccc32)cc1 [Crystal Violet Lactone, crystal violet lactone]	13.4	14.8	–
CCN(CC)c1ccc(-c2nc(Oc3ccc(C(C)(C)c4ccc(Oc5nc(-c6ccc(N(CC)CC)cc6)nc6ccccc56)cc4)cc3)c3ccccc3n2)cc1 [Pergascript Yellow I 3R, 4,4′-[(1-methylethylidene)bis(4,1-phenyleneoxy-4,2-quinazolinediyl)]bis[N,N-diethyl]benzamine]	1.1	0.7	not well-suited
CCN(CC)c1ccc2c(c1)Oc1ccc(N(Cc3ccccc3)Cc3ccccc3)cc1C21OC(=O)c2ccccc21 (stereo not drawn) [WinCon Green, 2-dibenzylamino-6-diethylaminofluoran]	5.7	7.0	–
CCN(CC)c1ccc2c(c1)Oc1cc(C)c(Nc3ccccc3)cc1C21OC(=O)c2ccccc21 (stereo not drawn) [WinCon-1, 6-diethylamino-3-methyl-2-phenylaminofluoran]	6.2	6.8	–
CCCCN(CCCC)c1ccc2c(c1)Oc1cc(C)c(Nc3ccccc3)cc1C21OC(=O)c2ccccc21 (stereo not drawn) [WinCon-2, 6-dibutylamino-3-methyl-2-phenylaminofluoran]	5.7	8.1	–
CCN(CC)c1ccc2c(c1)Oc1cc(C)c(Nc3ccc(C)cc3C)cc1C21OC(=O)c2ccccc21 (stereo not drawn) [WinCon-15, 2-(2,4-dimethylphenylamino)-3-methyl-6-diethylaminofluoran]	6.8	9.3	–
CCN(CCC(C)C)c1ccc2c(c1)Oc1cc(C)c(Nc3ccccc3)cc1C21OC(=O)c2ccccc21 (stereo not drawn) [WinCon-205, 6-(N-ethyl, N-isopentylamino)-3-methyl-2-phenylaminofluoran]	6.3	10.3	–
